According to US20260317356A1, “SMALL MOLECULE MODULATORS OF OGG1” (AZKARRA THERAPEUTICS, INC., priority 2023, published 2026):

Target: hOGG1 (Homo sapiens, UniProt O15527)
Test: Biochemical fluorescence assay to measure enzymatic activity of hOGG1 (OGG1/APEX IC50)
Parameters: Protein His-hOGG1 (12-323) was prepared; His (N); host or cells: E. coli
Conditions: 1 nM OGG1+2 nM APEX+6 nM dsDNA (8-oxo-dG substrate); pH 7.5; RT 40 min; read-out: OGG1/APEX IC50
In short: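 Coupled glycosylase/AP-endonuclease read-out: 8-oxo-dG-containing dsDNA (6 nM) cleaved by 1 nM His-hOGG1 (12-323) plus 2 nM APEX1 over 40 min at room temperature, after 20 min enzyme–compound preincubation; buffer 20 mM Tris pH 7.5, 100 mM KCl, 0.1% BSA, 0.01% Tween. IC50 comes from sigmoidal 3-parameter fitting of % inhibition derived from TAMRA signal.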

Sequence of hOGG1 (O15527 12-323): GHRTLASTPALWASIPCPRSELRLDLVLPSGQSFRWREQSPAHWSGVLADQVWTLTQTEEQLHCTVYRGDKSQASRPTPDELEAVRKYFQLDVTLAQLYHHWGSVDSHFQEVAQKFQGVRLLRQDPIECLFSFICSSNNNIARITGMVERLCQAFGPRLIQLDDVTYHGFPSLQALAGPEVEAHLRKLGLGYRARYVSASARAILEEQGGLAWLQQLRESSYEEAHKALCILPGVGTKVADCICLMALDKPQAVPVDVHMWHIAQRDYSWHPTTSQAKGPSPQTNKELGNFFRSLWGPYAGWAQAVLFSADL

Structure (SMILES) | IC50
COc1cc(NC(=O)[C@H]2CC[C@@H](N3Cc4c(C)ccc(N5CC(OC)C5)c4NC3=O)CC2)ccc1C [Example 38, (1s,4s)-N-(3-Methoxy-4-methylphenyl)-4-(8-(3-methoxyazetidin-1-yl)-5-methyl-2-oxo-1,2-dihydroquinazolin-3(4H)-yl)cyclohexanecarboxamide] | < 100 nM
C=Cc1ccc(NC(=O)[C@H]2CC[C@@H](N3Cc4c(C)cccc4C3=O)CC2)cc1OC [Example 122, (1s,4s)-N-(3-Methoxy-4-vinylphenyl)-4-(4-methyl-1-oxoisoindolin-2-yl)cyclohexane-1-carboxamide] | 100 to 1000 nM
COc1cc(NC(=O)[C@H]2CC[C@@H](N3Cc4c(C)cc(OCC5(O)CNC5)cc4C3=O)CC2)ccc1C [Example 138, (1s,4s)-4-(6-((3-Hydroxyazetidin-3-yl)methoxy)-4-methyl-1-oxoisoindolin-2-yl)-N-(3-methoxy-4-methylphenyl)cyclohexanecarboxamide] | < 100 nM
C=Cc1ccc(C)c2c1NC(=O)N([C@H]1CC[C@@H](C(=O)Nc3ccc(C)c(OC)c3)CC1)C2 [Example 55, (1s,4s)-N-(3-Methoxy-4-methylphenyl)-4-(5-methyl-2-oxo-8-vinyl-1,2-dihydroquinazolin-3(4H)-yl)cyclohexanecarboxamide] | < 100 nM
COCc1ccc(C)c2c1NC(=O)N([C@H]1CC[C@@H](C(=O)Nc3ccc(C)c(OC)c3)CC1)C2 [Example 1, (1s,4s)-N-(3-Methoxy-4-methylphenyl)-4-(8-(methoxymethyl)-5-methyl-2-oxo-1,2-dihydroquinazolin-3(4H)-yl)cyclohexanecarboxamide] | 1000 to 10000 nM
COc1cc(NC(=O)[C@H]2CC[C@@H](N3Cc4c(C)cccc4C3=O)CC2)ccc1C1CC1 [Example 121, (1s,4s)-N-(4-Cyclopropyl-3-methoxyphenyl)-4-(4-methyl-1-oxoisoindolin-2-yl)cyclohexane-1-carboxamide] | 1000 to 10000 nM
O=C(Nc1ccc(I)cc1)N1CCC(N2Cc3c(Br)cccc3C2=O)CC1 [Example 182, 4-(4-Bromo-1-oxoisoindolin-2-yl)-N-(4-iodophenyl) piperidine-1-carboxamide] | > 10000 nM
COc1cc(NC(=O)[C@H]2CC[C@H](N3Cc4c(C)cc(C5COC5)cc4NC3=O)CC2)ccc1C [Example 110, (1r,4r)-N-(3-methoxy-4-methylphenyl)-4-(5-methyl-7-(oxetan-3-yl)-2-oxo-1,2-dihydroquinazolin-3(4H)-yl)cyclohexanecarboxamide] | 1000 to 10000 nM
COc1cc(NC(=O)[C@H]2CC[C@@H](N3Cc4c(C)cc(O)cc4NC3=O)CC2)ccc1C [Example 77, (1s,4s)-4-(7-hydroxy-5-methyl-2-oxo-1,2-dihydroquinazolin-3(4H)-yl)-N-(3-methoxy-4-methylphenyl)cyclohexanecarboxamide] | < 100 nM
Cc1cc(NCCN(C)C)cc2c1CN([C@H]1CC[C@@H](C(=O)Nc3nc(CCO)cs3)CC1)C2=O [Example 131, (1s,4s)-4-(6-((2-(Dimethylamino)ethyl)amino)-4-methyl-1-oxoisoindolin-2-yl)-N-(4-(2-hydroxyethyl)thiazol-2-yl)cyclohexane-1-carboxamide] | 1000 to 10000 nM
COc1cc(NC(=O)[C@]2(C)CC[C@@H](N3Cc4c(C)cccc4NC3=O)CC2)ccc1C (single isomer, unassigned) [Example 102, (1r,4r)-N-(3-methoxy-4-methylphenyl)-1-methyl-4-(5-methyl-2-oxo-1,2-dihydroquinazolin-3(4H)-yl)cyclohexanecarboxamide] | 1000 to 10000 nM
Cc1cc(NCCN(C)C)cc2c1CN([C@H]1CC[C@@H](C(=O)Nc3ccn(CCO)n3)CC1)C2=O [Example 130, (1s,4s)-4-(6-((2-(Dimethylamino)ethyl)amino)-4-methyl-1-oxoisoindolin-2-yl)-N-(1-(2-hydroxyethyl)-1H-pyrazol-3-yl)cyclohexane-1-carboxamide] | 1000 to 10000 nM
COc1cc(NC(=O)[C@H]2CC[C@@H](N3Cc4c(C)cnc(Cl)c4NC3=O)CC2)ccc1C [Example 32, (1s,4s)-4-(8-Chloro-5-methyl-2-oxo-1,2-dihydropyrido[3,4-d]pyrimidin-3(4H)-yl)-N-(3-methoxy-4-methylphenyl)cyclohexanecarboxamide] | < 100 nM
COc1cc(NC(=O)[C@H]2CC[C@@H](N3Cc4c(Br)cc(NC5COC5)cc4C3=O)CC2)ccc1C [Example 174, (1s,4s)-4-(4-Bromo-6-(oxetan-3-ylamino)-1-oxoisoindolin-2-yl)-N-(3-methoxy-4-methylphenyl)cyclohexanecarboxamide] | 100 to 1000 nM
CCc1ccc(NC(=O)[C@H]2CC[C@@H](N3Cc4c(C)cccc4C3=O)CC2)cc1OC [Example 123, (1s,4s)-N-(4-Ethyl-3-methoxyphenyl)-4-(4-methyl-1-oxoisoindolin-2-yl)cyclohexane-1-carboxamide] | 100 to 1000 nM
COc1cc(NC(=O)[C@H]2CC[C@@H](N3Cc4c(C)ccc(CN(C)C)c4NC3=O)CC2)ccc1C [Example 52, (1s,4s)-4-(8-((Dimethylamino)methyl)-5-methyl-2-oxo-1,2-dihydroquinazolin-3(4H)-yl)-N-(3-methoxy-4-methylphenyl)cyclohexanecarboxamide] | < 100 nM
COc1cc(NC(=O)[C@H]2CC[C@@H](N3Cc4c(C)cccc4C3=O)CC2)ccc1Br [Example 120, (1s,4s)-N-(4-Bromo-3-methoxyphenyl)-4-(4-methyl-1-oxoisoindolin-2-yl)cyclohexane-1-carboxamide] | 100 to 1000 nM
C=Cc1cc(C)c2c(c1)NC(=O)N([C@H]1CC[C@@H](C(=O)Nc3ccc(C)c(OC)c3)CC1)C2 [Example 83, (1s,4s)-N-(3-methoxy-4-methylphenyl)-4-(5-methyl-2-oxo-7-vinyl-1,2-dihydroquinazolin-3(4H)-yl)cyclohexanecarboxamide] | 100 to 1000 nM
COc1cc(NC(=O)[C@H]2CC[C@@H](N3Cc4c(ccc(OC)c4C)NC3=O)CC2)ccc1C [Example 51, (1s,4s)-N-(3-Methoxy-4-methylphenyl)-4-(6-methoxy-5-methyl-2-oxo-1,2-dihydroquinazolin-3(4H)-yl)cyclohexanecarboxamide] | 100 to 1000 nM
COc1cc(NC(=O)[C@H]2CC[C@@H](N3Cc4c(ccc(OC5CNC5)c4C)NC3=O)CC2)ccc1C [Example 49, (1s,4s)-4-(6-(Azetidin-3-yloxy)-5-methyl-2-oxo-1,2-dihydroquinazolin-3(4H)-yl)-N-(3-methoxy-4-methylphenyl)cyclohexanecarboxamide] | 100 to 1000 nM

The remaining lines, values ahead:

IC50 | Structure (SMILES)
1000 to 10000 nM | Cc1cccc2c1CN([C@H]1CC[C@@H](C(=O)Nc3ccc4nc[nH]c4c3)CC1)C2=O [Example 272, (1s,4s)-N-(1H-benzo[d]imidazol-6-yl)-4-(4-methyl-1-oxoisoindolin-2-yl)cyclohexanecarboxamide]
1000 to 10000 nM | COc1cc(NC(=O)[C@@H]2[C@@H]3C[C@@H](N4Cc5c(Br)cccc5C4=O)C[C@@H]32)ccc1C (single isomer, unassigned) [Example 269]
> 10000 nM | O=C1c2cccc(Br)c2CN1[C@H]1CC[C@@H](C(=O)Nc2ccc3c(c2)OC(F)(F)O3)CC1 [Example 186, (1s,4s)-4-(4-Bromo-1-oxoisoindolin-2-yl)-N-(2,2-difluorobenzo[d][1,3]dioxol-5-yl)cyclohexanecarboxamide]
1000 to 10000 nM | O=C1c2cccc(Br)c2CN1[C@H]1CC[C@@H](C(=O)Nc2ccc3c(c2)OCO3)CC1 [Example 185, (1s,4s)-N-(Benzo[d][1,3]dioxol-5-yl)-4-(4-bromo-1-oxoisoindolin-2-yl)cyclohexanecarboxamide]
1000 to 10000 nM | Cn1c(NC(=O)[C@H]2CC[C@@H](N3Cc4c(Br)cccc4C3=O)CC2)nc2ccccc21 [Example 190, (1s,4s)-4-(4-Bromo-1-oxoisoindolin-2-yl)-N-(1-methyl-1H-benzo[d]imidazol-2-yl)cyclohexanecarboxamide]
1000 to 10000 nM | Cc1ccc(NC(=O)[C@H]2CC[C@@H](N3Cc4c(C)cccc4C3=O)CC2)cc1O [Example 222, (1s,4s)-N-(3-Hydroxy-4-methylphenyl)-4-(4-methyl-1-oxoisoindolin-2-yl)cyclohexanecarboxamide]
100 to 1000 nM | COc1cc(NC(=O)[C@H]2CC[C@@H](N3Cc4c(Br)cncc4C3=O)CC2)ccc1C [Example 183, (1s,4s)-4-(7-bromo-3-oxo-1H-pyrrolo[3,4-c]pyridin-2(3H)-yl)-N-(3-methoxy-4-methylphenyl)cyclohexanecarboxamide]
1000 to 10000 nM | COc1cccc(NC(=O)[C@H]2CC[C@@H](N3Cc4c(C)cccc4C3=O)CC2)n1 [Example 233, (1s,4s)-N-(6-Methoxypyridin-2-yl)-4-(4-methyl-1-oxoisoindolin-2-yl)cyclohexanecarboxamide]
100 to 1000 nM | COc1cc(NC(=O)[C@H]2CC[C@@H](N3Cc4c(C)cc(C=O)cc4C3=O)CC2)ccc1C [Example 210, (1s,4s)-4-(6-Formyl-4-methyl-1-oxoisoindolin-2-yl)-N-(3-methoxy-4-methylphenyl)cyclohexanecarboxamide]
100 to 1000 nM | Cc1cc(NC(=O)[C@H]2CC[C@@H](N3Cc4c(C)cccc4C3=O)CC2)ccc1O [Example 220, (1s,4s)-N-(4-Hydroxy-3-methylphenyl)-4-(4-methyl-1-oxoisoindolin-2-yl)cyclohexanecarboxamide]
< 100 nM | COc1cc(NC(=O)[C@H]2CC[C@@H](N3Cc4c(Br)cc(NCCCN(C)C)cc4C3=O)CC2)ccc1C [Example 205, (1s,4s)-4-(4-Bromo-6-(3-(dimethylamino)propylamino)-1-oxoisoindolin-2-yl)-N-(3-methoxy-4-methylphenyl)cyclohexanecarboxamide]
> 10000 nM | COc1cc(NC(=O)[C@H]2CC[C@@H](N3Cc4c(C)cccc4C3=O)CC2)ccc1C#N [Example 265, (1s,4s)-N-(4-Cyano-3-methoxyphenyl)-4-(4-methyl-1-oxoisoindolin-2-yl)cyclohexanecarboxamide]
